Test systems include OVCAR-8 ovarian; U251 CNS; K-562 leukemia; SF-268 CNS; A498 renal; HT29 colon; CAKI-1 renal; NCI-H522 lung.
Assay in all cases: NCI tumour cell line growth inhibition, 48 h

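Growth conditions: 96-well plates. Treatment: test compound, 48 hours, 5 concentrations. Analysis: linear interpolation between bracketing concentrations; unreached endpoints set to highest concentration. At the TGI there is no net growth.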 Bounds are passed on as bounds.

Consider `CCc1ccccc1NC(=O)CCc1n[nH]c(=S)o1`, for which the TGI in the assay with OVCAR-8 ovarian, in the assay with U251 CNS, in the assay with K-562 leukemia, in the assay with SF-268 CNS, in the assay with A498 renal and in the assay with HT29 colon was over 100 µM each time. This compound came in with a TGI in the assay with CAKI-1 renal of over 100 µM.
For the compound `COC(=O)C(C(=O)C(=O)NC1=C(Cl)C(=O)c2ccccc2C1=O)c1csc(-n2nc(-c3ccccc3)cc2-c2ccccc2)n1` (configuration not stated), the TGI with NCI-H522 lung, with OVCAR-8 ovarian, in the assay with U251 CNS, in the assay on K-562 leukemia, in the assay on SF-268 CNS and with A498 renal was over 100 µM in each case. Besides, the TGI with HT29 colon and in the assay on CAKI-1 renal was over 100 µM in each case.
Consider `O=c1c2ccccc2nc(-c2ccc(Br)cc2)n1NC1OC(CO)C(O)C(O)C1O` (configuration not stated), for which the TGI in the assay with NCI-H522 lung, with OVCAR-8 ovarian, with U251 CNS, with K-562 leukemia, in the assay with SF-268 CNS and in the assay with A498 renal was over 100 µM each time. For the same compound, the TGI in the assay on HT29 colon and with CAKI-1 renal was over 100 µM each time.
Take `C/C=C/C=N/N(C(=O)c1cc([N+](=O)[O-])cc([N+](=O)[O-])c1)C1=NC(c2ccccc2)C(c2ccccc2)=NN1` (configuration not stated): the TGI in the assay with NCI-H522 lung is 57 µM; in the assay with OVCAR-8 ovarian, over 100 µM; in the assay with U251 CNS, over 100 µM; in the assay with K-562 leukemia it was over 100 µM; in the assay on SF-268 CNS it was over 100 µM; in the assay on A498 renal it was over 100 µM. The TGI with HT29 colon and with CAKI-1 renal was over 100 µM in each case.
Regarding `NC(=O)N/N=C(\C(=O)C(=O)Nc1ccc(Cl)c(C(F)(F)F)c1)c1nc2ccc(C(=O)c3ccccc3)cc2[nH]c1=O`, the TGI in the assay on NCI-H522 lung, in the assay on OVCAR-8 ovarian, in the assay on U251 CNS, with K-562 leukemia, with SF-268 CNS and in the assay with A498 renal was over 100 µM in each case. Further, the TGI in the assay with HT29 colon and in the assay on CAKI-1 renal was over 100 µM in each case.
`CC(=O)OCc1cc(OC(C)=O)cnc1COC(C)=O`: the TGI in the assay on NCI-H522 lung, in the assay with OVCAR-8 ovarian, in the assay with U251 CNS, in the assay on K-562 leukemia, in the assay on SF-268 CNS and in the assay on A498 renal was over 100 µM throughout. The TGI in the assay on HT29 colon and with CAKI-1 renal was over 100 µM in each case.
For the compound `CC(C)NCC(O)COC(=O)c1cccs1` (configuration not stated), the TGI with NCI-H522 lung, in the assay on OVCAR-8 ovarian, in the assay on K-562 leukemia, with SF-268 CNS, in the assay with HT29 colon and with CAKI-1 renal was over 100 µM in each case.
For the compound `CCC(C)OC(=O)C1C2CCC(O2)C1C(=O)O` (configuration not stated), the TGI in the assay on NCI-H522 lung was over 100 µM; in the assay with OVCAR-8 ovarian, over 100 µM; in the assay on U251 CNS, over 67.3 µM; with K-562 leukemia it was over 100 µM; in the assay on SF-268 CNS, over 80.8 µM; with A498 renal, over 100 µM. Further, the TGI in the assay with HT29 colon is over 66.2 µM; with CAKI-1 renal, over 100 µM.
With `O=C(O)c1ccc(O)c(N=Nc2cc(S(=O)(=O)O)c3ccccc3c2O)c1`, the TGI was over 100 µM in the assay on OVCAR-8 ovarian; over 100 µM in the assay with U251 CNS; over 100 µM in the assay with K-562 leukemia; over 10 µM in the assay on SF-268 CNS; over 100 µM in the assay with A498 renal; over 100 µM in the assay on HT29 colon. This compound showed a TGI in the assay on CAKI-1 renal of over 100 µM.
As to `CC(=O)NC(CCCCNC(=O)N(CCCl)N=O)C(=O)NCc1ccccc1` (configuration not stated), the TGI with NCI-H522 lung, in the assay with OVCAR-8 ovarian, in the assay on U251 CNS, in the assay with K-562 leukemia, in the assay on SF-268 CNS and with HT29 colon was over 100 µM throughout. This compound also yielded a TGI in the assay on CAKI-1 renal of over 100 µM.
Take `Cc1ccc([N+](=O)[O-])cc1NC(=O)C(=O)Cc1occc(=O)c1O`: the TGI in the assay on NCI-H522 lung, in the assay on OVCAR-8 ovarian, with U251 CNS, with K-562 leukemia, with SF-268 CNS and with A498 renal was over 100 µM throughout. For the same compound, the TGI in the assay with HT29 colon and in the assay with CAKI-1 renal was over 100 µM each time.
As for `C#CCOCn1cnc2c(=S)nc[nH]c21`, the TGI in the assay with NCI-H522 lung, in the assay with OVCAR-8 ovarian, with U251 CNS, with K-562 leukemia, in the assay on SF-268 CNS and with A498 renal was over 100 µM in each case. For the same compound, the TGI with HT29 colon and in the assay on CAKI-1 renal was over 100 µM throughout.
On to `COC(=O)C(C(=O)C(=O)Nc1ccccc1C(C)=O)c1nc2ccc(Cl)cc2[nH]c1=O` (configuration not stated), for which the TGI with OVCAR-8 ovarian, in the assay with U251 CNS, in the assay with K-562 leukemia, with SF-268 CNS, with A498 renal and with HT29 colon was over 100 µM throughout. The compound further yielded a TGI in the assay on CAKI-1 renal of over 100 µM.
As for `CCC1=C(C)/C(=C/c2[nH]c(CBr)c(CC)c2C)N=C1CBr`, the TGI in the assay with NCI-H522 lung was 9.67 µM; in the assay with OVCAR-8 ovarian it was 26.6 µM; with U251 CNS it was 24.6 µM; with K-562 leukemia, over 100 µM; with SF-268 CNS, 36.8 µM; in the assay on HT29 colon it was 26.7 µM. This compound also gave a TGI with CAKI-1 renal of 25.8 µM.
On to `O=C1C(=O)N(C(=O)c2ccc(Cl)c(Cl)c2)c2ccc(Cl)cc21`, for which the TGI with OVCAR-8 ovarian was over 100 µM; in the assay with U251 CNS, over 100 µM; in the assay with K-562 leukemia, over 100 µM; with SF-268 CNS, over 100 µM; in the assay on A498 renal, 63.8 µM; in the assay with HT29 colon, over 100 µM.
For `CC1(C)OC(C(N)=O)=C(C(N)=O)O1`, the TGI with NCI-H522 lung, with OVCAR-8 ovarian, in the assay with U251 CNS, in the assay on K-562 leukemia, in the assay with SF-268 CNS and in the assay on A498 renal was over 100 µM throughout. The TGI with HT29 colon and in the assay with CAKI-1 renal was over 100 µM each time.
On to `ClC1CCC2OOC1O2` (configuration not stated), for which the TGI with NCI-H522 lung, in the assay with OVCAR-8 ovarian, with U251 CNS, in the assay with K-562 leukemia, with SF-268 CNS and in the assay on A498 renal was over 100 µM throughout. In addition, the TGI in the assay with HT29 colon and with CAKI-1 renal was over 100 µM throughout.

The values are drawn from PubChem BioAssay (NCI).
